In brackets after ≈: the same amount, converted by molar mass.
Key:
Staphylococcus aureus [1] = assay: Inhibitory effect against methicillin resistant Staphylococcus aureus (A 27218), expressed as minimum inhibitory concentration; assay type: functional
Staphylococcus aureus [2] = assay: Inhibitory effect against methicillin resistant Staphylococcus aureus (A 27223), expressed as minimum inhibitory concentration; assay type: functional
Staphylococcus aureus [3] = assay: Inhibitory effect against methicillin resistant Staphylococcus aureus (A 27621), expressed as minimum inhibitory concentration; assay type: functional
Staphylococcus aureus [4] = assay: Inhibitory effect against methicillin susceptible Staphylococcus aureus (A 15090), expressed as minimum inhibitory concentration; assay type: functional
Staphylococcus aureus [5] = assay: Inhibitory effect against methicillin resistant Staphylococcus aureus (A 27217), expressed as minimum inhibitory concentration; assay type: functional
Mus musculus = assay: In vivo protective dose against MRSA (strain A 27223); assay type: functional; conditions: read-out: PD50
[6] = In vitro half life in human plasma was determined; assay type: ADME, cell-free
Staphylococcus aureus [7] = assay: Minimum inhibitory concentration against MRSA (strain A 27223)

Structure (SMILES)	MIC (Staphylococcus aureus [1]) [µg/mL]	MIC (Staphylococcus aureus [2]) [µg/mL]	MIC (Staphylococcus aureus [3]) [µg/mL]	MIC (Staphylococcus aureus [4]) [µg/mL]	MIC (Staphylococcus aureus [5]) [µg/mL]	ED50 (Mus musculus) [mg/kg]	half-life [6] [h]	MIC (Staphylococcus aureus [7]) [µg/mL]
C[n+]1ccc(C(=O)OCC2=C(C(=O)[O-])N3C(=O)[C@@H](NC(=O)CSc4cc(Cl)ccc4Cl)C3SC2)cc1 (stereo not given in full)	2 (≈ 3.52 µM)	32 (≈ 56.3 µM)	32 (≈ 56.3 µM)	0.125 (≈ 0.22 µM)	8 (≈ 14.1 µM)	–	–	–
O=C(CSc1cc(Cl)ccc1Cl)N[C@@H]1C(=O)N2C(C(=O)O)=C(COC(=O)c3ccc([N+](=O)[O-])cc3)CSC12 (stereo not given in full)	0.25 (≈ 0.418 µM)	2 (≈ 3.34 µM)	2 (≈ 3.34 µM)	0.06 (≈ 0.1 µM)	0.25 (≈ 0.418 µM)	–	–	–
COc1ccc(C(=O)OCC2=C(C(=O)O)N3C(=O)[C@@H](NC(=O)CSc4cc(Cl)ccc4Cl)C3SC2)cc1 (stereo not given in full)	0.125 (≈ 0.214 µM)	0.5 (≈ 0.857 µM)	0.5 (≈ 0.857 µM)	0.06 (≈ 0.103 µM)	0.06 (≈ 0.103 µM)	–	–	–
CC(=O)OCC1=C(C(=O)O)N2C(=O)[C@@H](NC(=O)CSc3cc(Cl)ccc3Cl)C2SC1 (stereo not given in full)	–	–	–	–	–	2	~4.17	2 (≈ 4.07 µM)
N#Cc1ccc(C(=O)OCC2=C(C(=O)O)N3C(=O)[C@@H](NC(=O)CSc4cc(Cl)ccc4Cl)C3SC2)cc1 (stereo not given in full)	0.125 (≈ 0.216 µM)	1 (≈ 1.73 µM)	0.5 (≈ 0.864 µM)	0.03 (≈ 0.0519 µM)	0.125 (≈ 0.216 µM)	–	–	–
O=C(CSc1cc(Cl)ccc1Cl)N[C@@H]1C(=O)N2C(C(=O)O)=C(COC(=O)c3ccc(O)cc3)CSC12 (stereo not given in full)	0.06 (≈ 0.105 µM)	0.25 (≈ 0.439 µM)	0.5 (≈ 0.878 µM)	0.007 (≈ 0.0123 µM)	0.06 (≈ 0.105 µM)	–	–	–
O=C(CSc1cc(Cl)ccc1Cl)N[C@@H]1C(=O)N2C(C(=O)O)=C(COC(=O)c3cccnc3)CSC12 (stereo not given in full)	2 (≈ 3.61 µM)	4 (≈ 7.21 µM)	4 (≈ 7.21 µM)	0.125 (≈ 0.225 µM)	2 (≈ 3.61 µM)	–	–	–
C[n+]1cccc(C(=O)OCC2=C(C(=O)[O-])N3C(=O)[C@@H](NC(=O)CSc4cc(Cl)ccc4Cl)C3SC2)c1 (stereo not given in full)	32 (≈ 56.3 µM)	64 (≈ 113 µM)	64 (≈ 113 µM)	0.5 (≈ 0.88 µM)	64 (≈ 113 µM)	–	–	–
CN(C)c1ccc(C(=O)OCC2=C(C(=O)O)N3C(=O)[C@@H](NC(=O)CSc4cc(Cl)ccc4Cl)C3SC2)cc1 (stereo not given in full)	0.125 (≈ 0.21 µM)	0.25 (≈ 0.419 µM)	0.25 (≈ 0.419 µM)	0.06 (≈ 0.101 µM)	0.125 (≈ 0.21 µM)	–	> 10	–
CC(=O)Oc1ccc(C(=O)OCC2=C(C(=O)O)N3C(=O)[C@@H](NC(=O)CSc4cc(Cl)ccc4Cl)C3SC2)cc1 (stereo not given in full)	0.06 (≈ 0.0981 µM)	0.125 (≈ 0.204 µM)	0.125 (≈ 0.204 µM)	0.007 (≈ 0.0114 µM)	0.06 (≈ 0.0981 µM)	–	–	–
Cc1ccc(C(=O)OCC2=C(C(=O)O)N3C(=O)[C@@H](NC(=O)CSc4cc(Cl)ccc4Cl)C3SC2)cc1 (stereo not given in full)	0.06 (≈ 0.106 µM)	0.5 (≈ 0.881 µM)	0.25 (≈ 0.441 µM)	0.125 (≈ 0.22 µM)	0.5 (≈ 0.881 µM)	–	–	–
O=C(CSc1cc(Cl)ccc1Cl)N[C@@H]1C(=O)N2C(C(=O)O)=C(COC(=O)c3ccccc3)CSC12 (stereo not given in full)	0.5 (≈ 0.903 µM)	1 (≈ 1.81 µM)	1 (≈ 1.81 µM)	0.06 (≈ 0.108 µM)	1 (≈ 1.81 µM)	–	> 10	–
CC(=O)Nc1ccc(C(=O)OCC2=C(C(=O)O)N3C(=O)[C@@H](NC(=O)CSc4cc(Cl)ccc4Cl)C3SC2)cc1 (stereo not given in full)	0.5 (≈ 0.819 µM)	1 (≈ 1.64 µM)	1 (≈ 1.64 µM)	0.06 (≈ 0.0983 µM)	0.5 (≈ 0.819 µM)	–	–	–
CN[C@H](CC(C)C)C(=O)N[C@H]1C(=O)N[C@@H](CC(N)=O)C(=O)N[C@H]2C(=O)N[C@H]3C(=O)N[C@H](C(=O)N[C@H](C(=O)O)c4cc(O)cc(O)c4-c4cc3ccc4O)[C@H](O)c3ccc(c(Cl)c3)Oc3cc2cc(c3O[C@@H]2O[C@H](CO)[C@@H](O)[C@H](O)[C@H]2O[C@H]2C[C@](C)(N)[C@H](O)[C@H](C)O2)Oc2ccc(cc2Cl)[C@H]1O [VANCOMYCIN]	0.25 (≈ 0.173 µM)	0.25 (≈ 0.173 µM)	0.25 (≈ 0.173 µM)	0.25 (≈ 0.173 µM)	0.25 (≈ 0.173 µM)	–	–	–
O=C(CSc1cc(Cl)ccc1Cl)N[C@@H]1C(=O)N2C(C(=O)O)=C(COC(=O)c3ccncc3)CSC12 (stereo not given in full)	0.5 (≈ 0.902 µM)	8 (≈ 14.4 µM)	4 (≈ 7.21 µM)	0.06 (≈ 0.108 µM)	1 (≈ 1.8 µM)	–	–	–

Source: ChEMBL document CHEMBL1149933, “Synthesis and structure-activity relationship of C-3 benzoyloxymethyl cephalosporins exhibiting anti-MRSA activities” (Bioorg Med Chem Lett, 1997)
